{"source": "patent US4038402A", "about": "“Method of effecting antihistaminic, antiserotonin and antiallergic actions” (priority 1974, dated 1977)", "key": {"serotonin and histamine": {"test_system": "serotonin and histamine", "test": "time course of action on bronchoconstriction by serotonin and histamine (Koncett-Rossler method)", "assay_type": "in vivo, guinea pigs", "settings": "after intravenous injection", "description": "The broncheal muscle tone was examined in intact narcotized guinea pigs by the Koncett-Rossler method."}, "serotonin [1]": {"test_system": "serotonin", "settings": "known antagonist; cited from earlier work"}, "serotonin [2]": {"test_system": "serotonin", "settings": "30 mg/kg in the stomach; serotonin aerosol"}, "[3]": {"test": "pharmacological activity in experiments on isolated organs and on intact animals (overall)", "description": "(§1) The pharmacological activity of said compounds has been tested in various experiments in isolated organs and on intact narcotized and non-narcotizedanimals. The tests were aimed at establishing and quantitatively determining antihistaminic, antiserotonin, cholinolytic, and also broncholytic activity of the preparations. Moreover, the action of the preparations on increased permeability of the vessels, their antiexudative, antiallergic action were tested on guinea pigs, actively sensitized with ovalbumin with the administration of the antigen in the form of aerosol in effective doses. The effect of the preparations on the central nervous system, namely on the spontaneous motor activity, and also the interaction of the preparations with hypnotic and stimulating preparations, was tested."}, "[4]": {"test": "toxicity (LD50) on various laboratory animals", "assay_type": "in vivo", "description": "The toxicity (LD50) of the preparations was determined with various methods of administration (intravenous, subcutaneous, in the stomach) on various laboratory animals."}, "histamine": {"test_system": "histamine", "test": "antihistaminic and antiallergic activity compared with known preparations", "settings": "for certain experimental antihistaminic and antiallergic activity relative to known preparations: compared with dimedrol and diprasin-pipolfen"}, "ovalbumin": {"test_system": "ovalbumin", "test": "anaphylactic reaction of guinea pigs sensitized with ovalbumin, aerosol of ovalbumin", "assay_type": "in vivo", "settings": "30 mg/kg in the stomach", "description": "as §1"}}, "data": [{"smiles": "CCN(CC)C(=O)[C@@H]1C=C2c3cccc4[nH]cc(c34)C[C@H]2N(C)C1", "note": "[LSD-25, diethylamide lysergic acid]", "values": [{"measurement": "onset of effect", "setting": "serotonin and histamine", "result": "immediately"}, {"measurement": "activity as antagonist to serotonin", "setting": "serotonin [1]", "result": "one of the most active known antogonists to serotonin"}]}, {"smiles": "CN(C)CCOC(c1ccccc1)c1ccccc1", "note": "[Dimedrol]", "values": [{"measurement": "onset of effect", "setting": "serotonin and histamine", "result": "immediately"}, {"measurement": "persistence of the antiserotonin action", "setting": "serotonin [2]", "result": "4 to 6", "unit": "h"}]}, {"smiles": "OC(c1ccccc1)(C1CCCCC1)C1CN2CCC1CC2", "note": "(centres unmarked) [(phenyl)-(cyclohexyl)-(quinuclidyl- 3) -carbinol]", "values": [{"measurement": "pharmacological activity", "setting": "[3]", "result": "high activity"}]}, {"smiles": "OC(c1ccccc1)(c1ccccc1)C1CN2CCC1CC2", "note": "(centres unmarked) [(quinuclidyl-3)-diphenylcarbinol]", "values": [{"measurement": "pharmacological activity", "setting": "[3]", "result": "high activity"}, {"measurement": "times less toxic than dimedrol", "setting": "[4]; given in the stomach", "result": 1.5, "unit": "times"}, {"measurement": "times less toxic than dimedrol", "setting": "[4]; given intravenously", "result": 1.5, "unit": "times"}, {"measurement": "antihistaminic activity", "setting": "histamine", "result": "high antihistaminic activity"}, {"measurement": "certain experimental antihistaminic and antiallergic activity relative to known preparations", "setting": "histamine", "result": "superior"}]}, {"smiles": "COc1ccccc1C(O)(c1ccccc1OC)C1CN2CCC1CC2", "note": "(centres unmarked) [(quinuclidyl-3)-di(2'-methoxyphenyl)carbinol]", "values": [{"measurement": "protection from anaphylactic reaction", "setting": "ovalbumin", "result": "actively protects"}, {"measurement": "certain experimental antihistaminic and antiallergic activity relative to known preparations", "setting": "histamine", "result": "superior"}]}, {"smiles": "OC(c1cccs1)(c1cccs1)C1CN2CCC1CC2", "note": "(centres unmarked) [(quinuclidyl-3 )-di(thienyl- 2')-carbinol]", "values": [{"measurement": "pharmacological activity", "setting": "[3]", "result": "high activity"}]}, {"smiles": "OC(c1ccccc1)(c1cccs1)C1CN2CCC1CC2", "note": "(centres unmarked) [(phenyl)-(thienyl- 2')-(quinuclidyl- 3)carbinol]", "values": [{"measurement": "pharmacological activity", "setting": "[3]", "result": "high activity"}]}]}
